Measurements published in US10799496B2, “Naphthylenyl compounds for long-acting injectable compositions and related methods” (priority 2018, dated 2020).

Key:
[1] = Whole blood stability assay; assay type: in vitro ADME; conditions: prodrug 50 nM, fresh pooled human whole blood, 37 degrees C.; read-out: t1/2 at 37 degrees C. in human whole blood
Procedure: Naltrexone prodrug stability was assessed using freshly collected whole blood (within 24-hr collection) from pooled human (n=3) donors. The incubation mixtures were prepared by spiking the prodrugs into pre-warmed (37 degrees C.) fresh whole blood to a final concentration of 50 nM. After gentle mixing, aliquots of incubation mixtures were immediately transferred into four different 96-deep well plates. One plate was used for each time point. The plates were incubated at 37 degrees C. at a shaking speed of 100 rpm. At time points 15, 30, 60 and 120 minutes, the reaction was quenched by addition of a mixture of water and acetonitrile containing the internal standard (naltrexone-D3). Time point 0 minutes was prepared separately by spiking the prodrugs into a quenched whole blood to obtain a final concentration of 50 nM. All samples were vortexed at a low speed for 15 min and centrifuged at 3900 rpm for 15 min. Supernatants were transferred into 96-well plates for LC-MS/MS analysis to monitor the depletion of the prodrugs and the formation of naltrexone.
The amount of remaining prodrug and released naltrexone for each sample was quantitated against the calibration curves prepared with the whole blood. The human whole blood was purchased from BioreclamationIVT (Westbury, N.Y., USA). Naltrexone-D3 was purchased from CERILLIANT® (Round Rock, Tex., USA). […] Where multiple runs have been completed, average values are reported.

[2] = Pharmacokinetic evaluation of the release of naltrexone from Compound 2 in rats following a single intramuscular injection; assay type: in vivo, Sprague-Dawley rats; conditions: rat plasma
Procedure: Five male Sprague-Dawley rats were allowed to acclimate to the test facility for at least 2 days prior to study start. For dose administration of Compound 2, the rats were lightly anesthetized with isofluorane, the hind leg shaved and dosed intramuscularly with the formulation using a 21G needle. […] Serial whole blood samples were collected via sublingual route (˜150 μL) at 1, 8, and 24 hours post dose, and at 2, 4, 7, 10, 14, 17, 21, 24, 28, 35, 42, 49, 56, 63, 71, 78, 85, and 91 days post dose.
Blood samples were placed into K2EDTA blood collection tubes. After collection, blood samples were maintained chilled (on wet ice) and centrifuged (11,500 rpm for 2 minutes at 5 degrees C.) within 30 minutes to obtain plasma. Plasma was transferred into a single vial, 1.5 mL screw cap micro-centrifuge tube with inserts and stored at −80 degrees C. until analysis.
The formulation dosed was a crystalline suspension of Compound 2 (46 milligrams of Compound 2 dosed per animal), wherein the crystalline test article was characterized with a particle size distribution of Dv10=12.9 μm, Dv50=31.5 μm, and Dv90=63.1 μm (as measured via laser diffraction). The formulation was prepared the day before dosing. Details of the formulation dosed are described in Table D below.
Results of the above intramuscular rat study of Compound 2 are shown in Tables E and F. In particular, Table E reports the average blood plasma levels of naltrexone in rat (n=5) over 91 days following intramuscular administration.

## O=C(Cc1ccc2cc(CC(=O)Oc3ccc4c5c3O[C@H]3C(=O)CC[C@@]6(O)[C@@H](C4)N(CC4CC4)CC[C@]536)ccc2c1)Oc1ccc2c3c1O[C@H]1C(=O)CC[C@@]4(O)[C@@H](C2)N(CC2CC2)CC[C@]314 [Compound 2, bis((4R,4aS,7aR,12bS)-3-(cyclopropylmethyl)-4a-hydroxy-7-oxo-2,3,4,4a,5,6,7,7a-octahydro-1H-4,12-methanobenzofuro[3,2-e]isoquinolin-9-yl) 2,2′-(naphthalene-2,6-diyl)diacetate]
[1]
  half-life at 50 nM: 20.9 min
[2]; single i.m. dose of Compound 2, day 0.042 (1 hr), Rat 1
  Compound 2 conc.: 0.223 ng/mL
[2]; single i.m. dose of Compound 2, day 0.042 (1 hr), Rat 2
  Compound 2 conc.: 0.112 ng/mL
[2]; single i.m. dose of Compound 2, day 0.042 (1 hr), Rat 3
  Compound 2 conc.: <0.1 ng/mL
[2]; single i.m. dose of Compound 2, day 0.042 (1 hr), Rat 4
  Compound 2 conc.: 0.131 ng/mL
[2]; single i.m. dose of Compound 2, day 0.042 (1 hr), Rat 5
  Compound 2 conc.: 0.113 ng/mL
[2]; single i.m. dose of Compound 2, day 0.33 (8 hr), Rat 1
  Compound 2 conc.: <0.1 ng/mL
[2]; single i.m. dose of Compound 2, day 0.33 (8 hr), Rat 2
  Compound 2 conc.: <0.1 ng/mL
[2]; single i.m. dose of Compound 2, day 0.33 (8 hr), Rat 3
  Compound 2 conc.: <0.1 ng/mL
[2]; single i.m. dose of Compound 2, day 0.33 (8 hr), Rat 4
  Compound 2 conc.: <0.1 ng/mL
[2]; single i.m. dose of Compound 2, day 0.33 (8 hr), Rat 5
  Compound 2 conc.: <0.1 ng/mL
[2]; single i.m. dose of Compound 2, day 1, Rat 1
  Compound 2 conc.: <0.1 ng/mL
[2]; single i.m. dose of Compound 2, day 1, Rat 2
  Compound 2 conc.: <0.1 ng/mL
[2]; single i.m. dose of Compound 2, day 1, Rat 3
  Compound 2 conc.: <0.1 ng/mL
[2]; single i.m. dose of Compound 2, day 1, Rat 4
  Compound 2 conc.: <0.1 ng/mL
[2]; single i.m. dose of Compound 2, day 1, Rat 5
  Compound 2 conc.: <0.1 ng/mL
[2]; single i.m. dose of Compound 2, day 2, Rat 1
  Compound 2 conc.: <0.1 ng/mL
[2]; single i.m. dose of Compound 2, day 2, Rat 2
  Compound 2 conc.: <0.1 ng/mL
[2]; single i.m. dose of Compound 2, day 2, Rat 3
  Compound 2 conc.: <0.1 ng/mL
[2]; single i.m. dose of Compound 2, day 2, Rat 4
  Compound 2 conc.: <0.1 ng/mL
[2]; single i.m. dose of Compound 2, day 2, Rat 5
  Compound 2 conc.: <0.1 ng/mL
[2]; single i.m. dose of Compound 2, day 7, Rat 1
  Compound 2 conc.: <0.1 ng/mL
[2]; single i.m. dose of Compound 2, day 7, Rat 2
  Compound 2 conc.: <0.1 ng/mL
[2]; single i.m. dose of Compound 2, day 7, Rat 3
  Compound 2 conc.: 0.175 ng/mL
[2]; single i.m. dose of Compound 2, day 7, Rat 4
  Compound 2 conc.: <0.1 ng/mL
[2]; single i.m. dose of Compound 2, day 7, Rat 5
  Compound 2 conc.: <0.1 ng/mL
[2]; single i.m. dose of Compound 2, day 10, Rat 1
  Compound 2 conc.: 0.111 ng/mL
[2]; single i.m. dose of Compound 2, day 10, Rat 2
  Compound 2 conc.: <0.1 ng/mL
[2]; single i.m. dose of Compound 2, day 10, Rat 3
  Compound 2 conc.: 0.104 ng/mL
[2]; single i.m. dose of Compound 2, day 10, Rat 4
  Compound 2 conc.: 0.119 ng/mL
[2]; single i.m. dose of Compound 2, day 10, Rat 5
  Compound 2 conc.: <0.1 ng/mL
[2]; single i.m. dose of Compound 2, day 14, Rat 1
  Compound 2 conc.: 0.119 ng/mL
[2]; single i.m. dose of Compound 2, day 14, Rat 2
  Compound 2 conc.: 0.135 ng/mL
[2]; single i.m. dose of Compound 2, day 14, Rat 3
  Compound 2 conc.: <0.1 ng/mL
[2]; single i.m. dose of Compound 2, day 14, Rat 4
  Compound 2 conc.: 0.144 ng/mL
[2]; single i.m. dose of Compound 2, day 14, Rat 5
  Compound 2 conc.: 0.136 ng/mL
[2]; single i.m. dose of Compound 2, day 17, Rat 1
  Compound 2 conc.: <0.1 ng/mL
[2]; single i.m. dose of Compound 2, day 17, Rat 2
  Compound 2 conc.: <0.1 ng/mL
[2]; single i.m. dose of Compound 2, day 17, Rat 3
  Compound 2 conc.: <0.1 ng/mL
[2]; single i.m. dose of Compound 2, day 17, Rat 4
  Compound 2 conc.: <0.1 ng/mL
[2]; single i.m. dose of Compound 2, day 17, Rat 5
  Compound 2 conc.: <0.1 ng/mL
[2]; single i.m. dose of Compound 2, day 21, Rat 1
  Compound 2 conc.: <0.1 ng/mL
[2]; single i.m. dose of Compound 2, day 21, Rat 2
  Compound 2 conc.: <0.1 ng/mL
[2]; single i.m. dose of Compound 2, day 21, Rat 3
  Compound 2 conc.: <0.1 ng/mL
[2]; single i.m. dose of Compound 2, day 21, Rat 4
  Compound 2 conc.: <0.1 ng/mL
[2]; single i.m. dose of Compound 2, day 21, Rat 5
  Compound 2 conc.: 3.25 ng/mL
[2]; single i.m. dose of Compound 2, day 24, Rat 1
  Compound 2 conc.: 0.198 ng/mL
[2]; single i.m. dose of Compound 2, day 24, Rat 2
  Compound 2 conc.: 0.177 ng/mL
[2]; single i.m. dose of Compound 2, day 24, Rat 3
  Compound 2 conc.: 0.217 ng/mL
[2]; single i.m. dose of Compound 2, day 24, Rat 4
  Compound 2 conc.: 0.170 ng/mL
[2]; single i.m. dose of Compound 2, day 24, Rat 5
  Compound 2 conc.: 0.280 ng/mL
